This note sets out measurements from patent US20110071150A1 (priority 2009, published 2011).

Each structure is given as a SMILES string.

In the assay the test system is Jurkat IL-2 Production. The assay can be described thus: Jurkat IL-2 Production Assay. The format is cell-based. The note with it: Homo sapiens, Jurkat cell (ATCC), 18-20 h incubation, PHA 5 μg/mL with 1% FBS, or PMA/Ionomycin with 30% FBS (table does not say which). On the procedure: Jurkat IL-2 Production Assay
Cell: Jurkat cell (ATCC) was grown in RPMI 1640 with 10% FBS and 1% penicillin/streptomycin. The cell density was kept at 1.2-1.8×10^6/mL in culture flask before seeding into culture plate, and the cell density in the plate was 0.5×10^6/[…]/well.
Culture media: RPMI 1640 with 1% FBS or 30% FBS for high serum assay.
Test compound: serial dilution was done in 100% DMSO, and intermediate dilution was done with RPMI 1640 medium with 1% FBS. The DMSO final concentration in culture well was 0.25%.
Stimulant: PHA (Sigma#L9017-10MG) was used for the assay with 1% FBS in culture medium, and added after 10 minutes exposure of cell to compound/DMSO. The PHA final concentration in culture well was 5 μg/mL. PMA (Sigma# P-8139 5MG)/Ionomycin (Sigma# 10634-5MG) was used for the assay with 30% FBS in culture medium, and added at same time point as the 1% FBS culture assay. The final concentration of PMA was 50 ng/mL, and Ionomycin final concentration was 500 ng/mL.
Incubation: at 37° C. with 5% CO2 and 95% humidity for 18 h˜20 h.
IC50: IC50 was calculated with the data analysis software XLfit4, General Pharmacology model 251.
Regarding `Cn1nc(C(F)(F)F)cc1-c1ccc2[nH]c(-c3c(F)cccc3F)cc2c1` [Example 1, 2-(2,6-Difluoro-phenyl)-5-(2-methyl-5-trifluoromethyl-2H-pyrazol-3-yl)-1H-indole], 46 nM corresponded to half-maximal inhibition (IC50).

With `COc1ccc2c(c1)nc(C(F)(F)F)n2-c1ccc2[nH]c(-c3c(F)cccc3F)cc2c1` [Example 2, 1-[2-(2,6-Difluoro-phenyl)-1H-indol-5-yl]-5-methoxy-2-trifluoromethyl-1H-benzoimidazole], the IC50 (as a rule, the point on the concentration scale where inhibition reaches its midpoint) was determined as 830 nM. As to `Cn1nc(C(F)(F)F)cc1-c1ccc2[nH]c(-c3ccc(OC(F)(F)F)cc3)cc2c1` [Example 3, 5-(2-Methyl-5-trifluoromethyl-2H-pyrazol-3-yl)-2-(4-trifluoromethoxy-phenyl)-1H-indole], half-maximal inhibition (IC50) was put at 954 nM.

For the compound `Cc1sc(-c2ccccn2)nc1-c1ccc2[nH]c(-c3c(F)cccc3F)cc2c1` [Example 4, 2-(2,6-Difluoro-phenyl)-5-(5-methyl-2-pyridin-2-yl-thiazol-4-yl)-1H-indole], the IC50 was determined as 219 nM. The value for `Cc1sc(-c2ccccn2)nc1-c1ccc2[nH]c(-c3ccccc3Cl)cc2c1` [Example 5, 2-(2-Chloro-phenyl)-5-(5-methyl-2-pyridin-2-yl-thiazol-4-yl)-1H-indole] was 223 nM; that for `Cc1ccccc1-c1cc2cc(-c3nc(-c4ccccn4)sc3C)ccc2[nH]1` [Example 6, 5-(5-Methyl-2-pyridin-2-yl-thiazol-4-yl)-2-o-tolyl-1H-indole] was 611 nM; that for `Cc1nc(-c2ccccc2)sc1-c1ccc2[nH]c(-c3ccccc3Cl)cc2c1` [Example 7, 2-(2-Chloro-phenyl)-5-(4-methyl-2-phenyl-thiazol-5-yl)-1H-indole] was 800 nM. With `Cc1ncccc1-c1cc2cc(-c3sc(-c4ccccc4)nc3C)ccc2[nH]1` [Example 8, 5-(4-Methyl-2-phenyl-thiazol-5-yl)-2-(2-methyl-pyridin-3-yl)-1H-indole] the figure was 287 nM. The compound `Cc1sc(-c2ccccn2)nc1-c1ccc2[nH]c(-c3ccncc3F)cc2c1` [Example 9, 2-(3-Fluoro-pyridin-4-yl)-5-(5-methyl-2-pyridin-2-yl-thiazol-4-yl)-1H-indole] returned an IC50 of 908 nM. `Cc1cnccc1-c1cc2cc(-c3nc(-c4ccccn4)sc3C)ccc2[nH]1` [Example 10, 2-(3-Methyl-pyridin-4-yl)-5-(5-methyl-2-pyridin-2-yl-thiazol-4-yl)-1H-indole] displayed an IC50 of 190 nM. Against the preceding compound, the IC50 is about 4.8-fold lower. The value for `Cc1sc(-c2cccnc2)nc1-c1ccc2[nH]c(-c3ccccc3F)cc2c1` [Example 11, 2-(2-Fluoro-phenyl)-5-(5-methyl-2-pyridin-3-yl-thiazol-4-yl)-1H-indole] was 169 nM; that for `Cc1sc(-c2cccnc2)nc1-c1ccc2[nH]c(-c3ccccc3Cl)cc2c1` [Example 12, 2-(2-Chloro-phenyl)-5-(5-methyl-2-pyridin-3-yl-thiazol-4-yl)-1H-indole] was 86 nM; that for `Cc1sc(-c2cccnc2)nc1-c1ccc2[nH]c(-c3c(F)cccc3F)cc2c1` [Example 13, 2-(2,6-Difluoro-phenyl)-5-(5-methyl-2-pyridin-3-yl-thiazol-4-yl)-1H-indole] was 66 nM. With `Cn1nc(C(F)(F)F)cc1-c1ccc2[nH]c(-c3ccccc3F)cc2c1` [Example 14, 2-(2-Fluoro-phenyl)-5-(2-methyl-5-trifluoromethyl-2H-pyrazol-3-yl)-1H-indole], the midpoint of inhibition, the IC50, lay at 337 nM. As to `CCn1nc(-c2ccccc2)cc1-c1ccc2[nH]c(-c3c(F)cccc3F)cc2c1` [Example 15, 2-(2,6-difluoro-phenyl)-5-(2-ethyl-5-phenyl-2H-pyrazol-3-yl)-1H-indole], the IC50 is 468 nM. With `CCn1nc(-c2ccccn2)cc1-c1ccc2[nH]c(-c3c(F)cccc3F)cc2c1` [Example 16, 2-(2,6-Difluoro-phenyl)-5-(2-ethyl-5-pyridin-2-yl-2H-pyrazol-3-yl)-1H-indole] the figure was 211 nM.

The compound `Cn1nc(-c2ccncc2)cc1-c1ccc2[nH]c(-c3c(F)cccc3F)cc2c1` [Example 17, 2-(2,6-Difluoro-phenyl)-5-(2-methyl-5-pyridin-4-yl-2H-pyrazol-3-yl)-1H-indole] displayed an IC50 of 57 nM.

As to `CCn1nc(-c2ccncc2)cc1-c1ccc2[nH]c(-c3c(F)cccc3F)cc2c1` [Example 18, 2-(2,6-Difluoro-phenyl)-5-(2-ethyl-5-pyridin-4-yl-2H-pyrazol-3-yl)-1H-indole], the IC50 came out at 102 nM. The value for `Cn1nc(-c2cccnc2)cc1-c1ccc2[nH]c(-c3c(F)cccc3F)cc2c1` [Example 19, 2-(2,6-Difluoro-phenyl)-5-(2-methyl-5-pyridin-3-yl-2H-pyrazol-3-yl)-1H-indole] was 198 nM.

Take `CCn1nc(-c2cccnc2)cc1-c1ccc2[nH]c(-c3c(F)cccc3F)cc2c1` [Example 20, 2-(2,6-Difluoro-phenyl)-5-(2-ethyl-5-pyridin-3-yl-2H-pyrazol-3-yl)-1H-indole]: it took 101 nM to reach half-maximal inhibition (IC50). With `Cc1sc(-c2ccncc2)nc1-c1ccc2[nH]c(-c3c(F)cccc3F)cc2c1` [Example 21, 2-(2,6-Difluoro-phenyl)-5-(5-methyl-2-pyridin-4-yl-thiazol-4-yl)-1H-indole] the figure was 90 nM; with `Cc1sc(-c2ccncc2)nc1-c1ccc2[nH]c(-c3ccccc3Cl)cc2c1` [Example 22, 2-(2-Chloro-phenyl)-5-(5-methyl-2-pyridin-4-yl-thiazol-4-yl)-1H-indole], 150 nM; with `Cc1ccc(-c2ncco2)cc1-c1ccc2[nH]c(-c3c(F)cccc3F)cc2c1` [Example 23, 2-(2,6-Difluoro-phenyl)-5-(2-methyl-5-oxazol-2-yl-phenyl)-1H-indole], 210 nM. With `Fc1cccc(F)c1-c1cc2cc(-c3cccc(-c4ncco4)c3)ccc2[nH]1` [Example 24, 2-(2,6-Difluoro-phenyl)-5-(3-oxazol-2-yl-phenyl)-1H-indole] the figure was 427 nM; with `Cc1ccc(-c2nccs2)cc1-c1ccc2[nH]c(-c3c(F)cccc3F)cc2c1` [Example 25, 2-(2,6-Difluoro-phenyl)-5-(2-methyl-5-thiazol-2-yl-phenyl)-1H-indole], 224 nM. `COc1ccc(OC)c(-c2ccc3[nH]c(-c4c(F)cccc4F)cc3c2)c1` [Example 26, 2-(2,6-Difluoro-phenyl)-5-(2,5-dimethoxy-phenyl)-1H-indole]: half-maximal inhibition (IC50) was put at 639 nM. `Cc1cc(C#N)ccc1-c1ccc2[nH]c(-c3c(F)cccc3F)cc2c1` [Example 27, 4-[2-(2,6-Difluoro-phenyl)-1H-indol-5-yl]-3-methyl-benzonitrile] displayed an IC50 of 97 nM.

`COc1ccc(-c2ccc3[nH]c(-c4c(F)cccc4F)cc3c2)c(C)c1` [Example 28, 2-(2,6-Difluoro-phenyl)-5-(4-methoxy-2-methyl-phenyl)-1H-indole] gave an IC50 of 123 nM.

With `Cc1ccc(-c2ccc3[nH]c(-c4c(F)cccc4F)cc3c2)c(C)c1` [Example 29, 2-(2,6-Difluoro-phenyl)-5-(2,4-dimethyl-phenyl)-1H-indole], the IC50 is 168 nM. `COC(=O)c1ccc(-c2ccc3[nH]c(-c4c(F)cccc4F)cc3c2)c(C)c1` [Example 30] returned an IC50 of 85 nM. The value for `Cc1cc(Cl)ccc1-c1ccc2[nH]c(-c3c(F)cccc3F)cc2c1` [Example 31, 5-(4-Chloro-2-methyl-phenyl)-2-(2,6-difluoro-phenyl)-1H-indole] was 174 nM.
